Key:
[1] = system: HME31E6 cells; assay: Replicative lifespan of HME31E6 cells cultured with CTR (Example 10); format: cell-based, human; conditions: 30 μM and 100 μM
Experimental: Human mammary epithelial cells expressing HPV16 E6 bypass M1 and have extended replicative lifespan. HME31 Cells normally senesce at PDL 42-45. When expressing […] they will bypass M1 and divide until they reach crisis (M2) at PDL 53-62. The TRFs in HME31 (E6) cells at PDL 40 are approximately 5-6 Kb while at PDL 62 they are 3-4 Kb (see FIG. 12). […] As controls, the cells were cultured without oligonucleotide (control), or with a 30 μM random oligonucleotide with the base content matched to the CTR oligonucleotide. […] The control cells divided approximately 20 times during the experiment, whereas the CTR-treated cells divided at least 40-50 times.

[2] = system: HME31E6 cells; assay: TRF shortening in HME31E6 cells cultured with CTO (Example 10); format: cell-based, human; conditions: 3, 10, 30 and 100 μM, between PDL 36 and 50
From the text: As in Example 1, the change in proliferative lifespan and rate of telomere shortening in cultured mammary epithelial cells treated with the indicated amounts of CTO (occasionally referred to as C-Rich Terminal Repeat (CTR)) versus control random oligonucleotides. Normal human mammary epithelial cells from a donor (31) were infected with the E6 gene of human papilloma virus 16. This gene product binds p53 protein and permits HME31 cells to have extended life span by proliferating from PDL 42 to PDL 62 when crisis occurs. During this extended lifespan period the TRFs shorten from an average of approximately 5 kb to 2.5 kb (compare in FIG. 12 HME31 PD 40 to HME31E6 PD 68).
As controls the cells were cultured without oligonucleotides (nil) or with 30 μM random oligonucleotide. […] This is most easily seen by examining the subpopulation of telomere TRFs that migrate more slowly than the rest, giving a discrete trailing band. Cells were maintained in logarithmic growth with medium changed and fresh oligonucleotide added three times per week.

[3] = system: IMR-90 human lung fibroblasts; assay: Proliferative lifespan of IMR-90 fibroblasts fed oligonucleotides (Example 1); format: cell-based
From the text: The efficacy of the CTO-12 oligonucleotide (5′-[…]-3′ Seq. ID No. 2) to reduce telomere shortening associated with cellular senescence (FIG. 1) was studied using target cells cultured under standard cell culture conditions in minimal essential medium supplemented with 10% fetal calf serum. The cells were subcultivated every four days by trypsinization upon reaching confluency and were fed new medium at subcultivation or every two days, whichever came first. Cells at various population doubling levels were seeded at 10,000 cells per well and fed medium containing oligonucleotides at various concentrations. oligonucleotides studied were the cytidine-rich terminal oligonucleotide (CTO-12), guanidine-rich terminal oligonucleotide-12 bp (GTO-12, having the sequence 5′-[…]-3′ (SEQ ID NO:19), and a 12 base pair randomer with a random nucleotide in every position. As an additional control, cells were fed identical medium without oligonucleotide. Cells were fed oligonucleotide every 48 hours from 10×stocks. (Such oligonucleotides may be modified to enhance stability, e.g., with phosphorothioates, dithioate and 2-O-methyl RNA.) In the case of phosphorothioates it would be desirable to use longer CTO primers such as 5′-[…]-3′(SEQ ID NO:20), 5′-[…]-3′(SEQ ID NO:21), or 5′-[…]-3′(SEQ ID NO:22). […]

[4] = system: IMR-90 lung fibroblasts; assay: Life span of IMR-90 lung fibroblasts treated with phosphodiester CTO (Example 11); format: cell-based, human
Experimental: Referring to FIG. 14, IMR-90 lung fibroblasts TRFat PDL 30 were treated with 10 μM, 30 μM or 100 μM phosphodiester CTO or with only media addition (control). The cells were cultured in medium containing regular defined supplemented calf serum. The cells were passaged in 24 well dishes and subcultivated by trypsinization upon reaching confluency at 25,000 cells per well. The cells were fed medium containing oligonucleotides at various concentrations daily. As a control, cells were fed identical medium without oligonucleotides. As is illustrated in FIG. 14, there was approximately a 12-15% extension of total life span with CTO. In these experiments the control cells divided approximately 15-18 times during the experiment, whereas the treated cells divided 23-26 times. IMR-90 telomeres shorten approximately 50 b.p. per division and the TRF length of the control IMR-90 fibroblasts at senescence was approximately 9 kb. Since the 100 μM CTO-treated IMR-90 cells senesced at PDL 55, the predicted difference in the rate of TRF loss between the control and the 100 μM CTO (9 kb vs 9.4 kb) is too small to be resolved using current techniques.

[5] = system: MDA 157 human breast cancer cells; assay: Proliferation of MDA 157 cancer cells fed oligonucleotides (Example 2); format: cell-based; conditions: 1.0 μM CTO-12
Experimental: Specifically, MDA 157 human breast cancer cells with an immortal phenotype were seeded at 10,000 cells per well in 12 well tissue culture dishes and fed medium only or medium supplemented with GTO-12 (at 1.0 μM, 0.1 μM, and 0.01 μM). […] Cells fed the GTO-12 oligonucleotide, at 1.0 μM, however, ceased to proliferate after less than 10 doubling. […] The lack of effect of the G+C mixture may reflect the CTO-12 oligonucleotide, competing with or base pairing with the GTO-12 oligonucleotide, this preventing its inhibitory effect on the cancer cell telomerase.

[6] = biological target: T1, human telomerase obtained from the tumor cell line 296 (Homo sapiens, UniProt O14746); assay: Inhibition of human telomerase from a tumor cell line; format: biochemical
T1 construct: human telomerase obtained from the tumor cell line 296; endogenous in cells; host or cells: tumor cell line 296 (so in the source)

[7] = system: lymphoma cell line JY 616; assay: Telomere length of JY lymphoma cells by Southern blot; format: cell-based, human; conditions: 10 μM, 9 and 10 weeks
Experimental: The first lane is DNA from the cells at the start of the experiment, the second is the RPMI control, and the third is cells treated with AZT for the times indicated.
Cells were treated over a 10 week period with either 10 μM ddG in 0.01% DMSO or medium with 0.01% DMSO only.
The effect of the agents on telomerase activity in intact cells was then studied utilizing the lymphoma cell line JY 616 which were maintained in RPMI 1640 with […] Hepes, 10% FCS, and penicillin/streptomycin (Gibco). The cells were cultured in 6-well plates (Falcon) with 5.0 ML of medium per well in duplicate. Cells were passaged every 7-10 days which corresponded to 5-7 mean population doublings (MPD), and seeded at 3×10^4 cells per well into fresh medium containing analog or control. Cell viability was monitored prior to harvest utilizing trypan blue stain (Gibco) during counting with a hemocytometer. The average ratio of stained: unstained cells (dead:alive) was […]. The intactness of the DNA was measured on a parallel gel by observing its mobility in a gel prior to digestion by a restriction enzyme.

[8] = system: Tetrahymena cells; assay: Progeny formation (cycloheximide resistance) of Tetrahymena conjugated in the presence of analog; format: cell-based, Tetrahymena thermophila; conditions: for % CHX-R / # CHX-R: first block for the analog; for # CHX-R: number of cycloheximide-resistant wells
Experimental: For analysis of cycloheximide (CHX) sensitivity of cells conjugated in the presence of analog, 50 ml cultures of each cell type were grown overnight in 2% PPYS, starved in Dryl's for 18 hours, mated (5×10^5 cells/ml) for 6 hours, then analog was added. Cells were allowed to complete mating in the presence of the analog. Twenty-four hours after mixing, cells were diluted in Dryl's solution, counted and plated at 1 cell per well of 96-well plates in 1% PPYS without analog. Cells were grown for 4 days in a humid chamber at 30° C., without shaking. Cells were then replica plated into 1% PPYS plus 15 μg/ml cycloheximide, allowed to grow for four days before scoring, and percent of CHX-resistant wells was calculated. Because generation of progeny expressing the cycloheximide marker requires successful production of a new macronucleus, cells whose macronuclear development was disrupted by the analog are killed in CHX.
This process involves de novo formation of new macronuclear telomeres in the progeny cells. Macronuclear development in ciliated protozoans such as Tetrahymena involves developmentally programmed, site-specific fragmentation of germline chromosomes into linear subchromosomes, whose ends are healed by de novo addition of telomeres. […] Because of the immediate requirement for telomere addition to fragmented DNA, it is possible that the latter process might be more sensitive to telomerase inhibition than telomere maintenance during vegetative growth. To test whether nucleoside analogs cause inhibition of macronuclear development due to a disruption of telomere formation, we mated two strains of Tetrahymena which are sensitive to cycloheximide, but whose progeny after mating are resistant to cycloheximide. Synchronized mated cells were treated with AZT at concentrations ranging from 10 μM to 5 mM for a period beginning just prior to when macronuclear development begins and continuing during macronuclear development (the period 6-24 hours after mating was initiated). […] In attempts to maximize the effect of AZT, cells were either refed at 6 hrs with 2% PPYS or Isobroth, or starved until 24 hrs (the duration of the AZT treatment). Such starvation arrests macronuclear development at an intermediate stage. When refed, macronuclear development would then be forced to proceed in the presence of the AZT. Control, unmated parental cells were also plated and exposed to drug.

[9] = system: Tetrahymena cells; assay: Telomere length in vegetatively grown Tetrahymena by Southern blot; format: cell-based, Tetrahymena thermophila; conditions: up to 1 mM, 5 days of subculturing (15-20 cell generations), 2% PPYS
Experimental: For analysis of macronuclear DNA from cultures containing the nucleoside analog AZT (Sigma), or controls lacking analog, at various timepoints during vegetative divisions, cells from stationary stock cultures were inoculated into 25 ml thymine-deficient Iso-sensitest broth (‘Isobroth’, Oxoid USA) in 250 ml flasks. Cultures were incubated at 30° C. with shaking (100 rpm) for 48 hours. Cells were counted and plated at 1000 cells/1.5 ml in 24-well plates (Falcon) and grown at 30° C., without shaking, for 48 hours. 5 μl of these log phase cells were used to inoculate 1 ml cultures (Isobroth) containing varied concentrations of nucleoside analog. Thereafter, every 2-4 days cells were transferred, either 5 μl per well, or 1-3 μl using a multi-pronged replicator into fresh 1 ml broth containing AZT. Remaining cells were pelleted and stored at −80° C. until processed for DNA analysis.
For analysis of macronuclear DNA from vegetative cultures containing the nucleoside analogs Ara-G (Calbiochem), ddG (Calbiochem), or ddI (Calbiochem), or controls lacking analog, stock cultures were grown overnight in 2% PPYS as described. Cells were counted and plated at 100 cells/2 ml in 2% PPYS containing varied amounts of analog, 1% DMSO (Fisher) (as a control for ddG and Ara-G), or 2% PPYS alone. Cells were replica plated into fresh medium every 2-6 days, and remaining cells were pelleted and stored at −80° C. until processed for DNA analysis.
For analysis of macronuclear DNA from vegetative cultures containing d4T (Sigma) or control lacking the analog, stock cultures (SB210 VI) were grown overnight in Isobroth as described. Cells were then counted and duplicate cultures inoculated at 500 cells/5 ml Isobroth in 50 ml conical tubes, and grown at 30° C., shaking 80 rpm. 500-2000 cells were transfered to fresh broth every 2-4 days, and the remainder pelleted and stored at −80° C. until processed for DNA analysis.
Restriction digests, agarose gel electrophoresis, transfer of DNA to Nytran filters (Schleicher and Schuell), and hybridization with ^32P-nick-trapplated or random-primed probes were carried out using standard procedures (Maniatis et.al. 1989). Telomere length was analyzed as described previously for Tetrahymena [Larson 50 Cell, 477, 1987].
Telomere lengths in cells grown in the presence of the different analogs were monitored by Southern blot analysis of DNA samples extracted at a series of time points during the subculturings. The telomeres of cells grown vegetatively in 1 and 5 mM AZT in 2% PPYS medium were reproducibly shortened by up to an average of 170 base pairs compared with the control cultures grown in 2% PPYS in the absence of the drug (FIG. 21A and B). This shortening of telomeres occured in a concentration-dependent manner (FIG. 21B), with at least 50% of the maximal shortening effect occurring by 10 μM AZT, the lowest concentration tested.

T1 sequence (O14746 whole entry): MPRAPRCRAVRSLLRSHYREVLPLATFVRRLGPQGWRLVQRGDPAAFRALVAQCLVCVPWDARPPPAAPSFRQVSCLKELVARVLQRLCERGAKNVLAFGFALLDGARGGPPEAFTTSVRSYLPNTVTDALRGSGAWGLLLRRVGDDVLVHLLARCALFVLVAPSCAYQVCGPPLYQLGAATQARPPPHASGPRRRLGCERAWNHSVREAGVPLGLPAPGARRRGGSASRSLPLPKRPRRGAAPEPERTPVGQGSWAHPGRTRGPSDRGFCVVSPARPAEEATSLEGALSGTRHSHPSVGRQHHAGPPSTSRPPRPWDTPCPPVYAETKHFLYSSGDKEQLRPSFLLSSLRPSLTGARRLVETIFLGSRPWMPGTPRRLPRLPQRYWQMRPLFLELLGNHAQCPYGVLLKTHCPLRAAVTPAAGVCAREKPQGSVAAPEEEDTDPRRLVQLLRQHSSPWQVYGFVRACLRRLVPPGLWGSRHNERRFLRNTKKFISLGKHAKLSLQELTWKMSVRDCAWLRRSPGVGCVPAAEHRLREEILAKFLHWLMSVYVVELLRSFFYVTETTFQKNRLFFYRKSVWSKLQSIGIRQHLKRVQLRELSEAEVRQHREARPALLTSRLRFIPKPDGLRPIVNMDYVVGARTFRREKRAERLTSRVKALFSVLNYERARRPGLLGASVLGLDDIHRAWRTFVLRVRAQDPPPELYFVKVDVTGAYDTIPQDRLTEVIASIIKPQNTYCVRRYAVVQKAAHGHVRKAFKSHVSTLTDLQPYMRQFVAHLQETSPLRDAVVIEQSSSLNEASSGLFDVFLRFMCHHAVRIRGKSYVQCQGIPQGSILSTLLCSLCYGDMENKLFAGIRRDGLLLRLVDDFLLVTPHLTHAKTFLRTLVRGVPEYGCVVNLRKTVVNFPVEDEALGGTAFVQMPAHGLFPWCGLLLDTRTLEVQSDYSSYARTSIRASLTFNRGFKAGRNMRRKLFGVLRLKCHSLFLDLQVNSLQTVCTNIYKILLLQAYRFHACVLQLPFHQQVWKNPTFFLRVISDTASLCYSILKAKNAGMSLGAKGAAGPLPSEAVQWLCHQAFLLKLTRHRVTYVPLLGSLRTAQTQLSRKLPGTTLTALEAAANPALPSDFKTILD
T1 sequence (O60832 whole entry partner): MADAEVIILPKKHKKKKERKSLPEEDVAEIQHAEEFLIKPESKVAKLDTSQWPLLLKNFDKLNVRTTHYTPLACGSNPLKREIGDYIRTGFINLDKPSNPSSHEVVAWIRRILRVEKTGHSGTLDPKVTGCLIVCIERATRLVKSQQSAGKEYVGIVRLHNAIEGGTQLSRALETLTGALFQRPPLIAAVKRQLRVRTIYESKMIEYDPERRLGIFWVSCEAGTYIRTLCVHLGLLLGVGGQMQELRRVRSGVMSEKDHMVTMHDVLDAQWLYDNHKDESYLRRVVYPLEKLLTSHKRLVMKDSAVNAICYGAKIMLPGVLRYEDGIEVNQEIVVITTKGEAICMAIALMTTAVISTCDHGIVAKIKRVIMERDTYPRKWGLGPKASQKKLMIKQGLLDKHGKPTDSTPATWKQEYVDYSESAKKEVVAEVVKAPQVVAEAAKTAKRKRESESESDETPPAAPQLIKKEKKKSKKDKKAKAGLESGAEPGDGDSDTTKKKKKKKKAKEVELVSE
T1 sequence (Q9NPE3 whole entry partner): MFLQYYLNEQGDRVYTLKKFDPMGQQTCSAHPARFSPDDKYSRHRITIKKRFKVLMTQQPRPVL
T1 sequence (Q9NX24 whole entry partner): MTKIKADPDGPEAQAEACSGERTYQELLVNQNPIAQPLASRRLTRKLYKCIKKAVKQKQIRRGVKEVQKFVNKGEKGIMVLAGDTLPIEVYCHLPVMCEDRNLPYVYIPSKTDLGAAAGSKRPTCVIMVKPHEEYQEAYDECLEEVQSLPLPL
T1 sequence (Q9NY12 whole entry partner): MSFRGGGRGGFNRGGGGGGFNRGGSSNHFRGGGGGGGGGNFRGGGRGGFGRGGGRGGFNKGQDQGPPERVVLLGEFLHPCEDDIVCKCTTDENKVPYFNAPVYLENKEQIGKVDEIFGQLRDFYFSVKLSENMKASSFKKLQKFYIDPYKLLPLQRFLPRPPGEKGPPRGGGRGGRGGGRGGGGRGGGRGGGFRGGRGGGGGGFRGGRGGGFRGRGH

Molecule	replicative lifespan compared to control and 30 μM random oligonucleotide ([1]; started at PDL 36)	number of cell divisions during the experiment ([1]; started at PDL 36, defined medium without serum)	TRF shortening compared to nil control and 30 μM random oligonucleotide [2]	doublings of continued proliferation more than control cells ([3]; 1.0 μM oligonucleotide, cells seeded at PD45)	population doubling at which replicative senescence was reached ([3]; CTO-12 at less than 1.0 μM (0.1 μM), seeded at PD45)	number of cell divisions during the experiment ([4]; 10 μM, 30 μM or 100 μM, from PDL 30)	extension of total life span ([4]; 10 μM, 30 μM or 100 μM, from PDL 30, fed daily)	PDL at senescence ([4]; 100 μM)	proliferation phenotype [5]	inhibition of human telomerase [6]	telomere length compared to the DMSO control [7]	% CHX-R ([8]; 0.001 mM analog (head prints MM))	# CHX-R ([8]; 0.001 mM analog)	% CHX-R ([8]; 0.1 mM analog (head prints MM))	# CHX-R ([8]; 0.1 mM analog)	% CHX-R ([8]; 1.0 mM analog (head prints MM))	# CHX-R ([8]; 1.0 mM analog)	irreversible disruption of macronuclear development ([8]; analog present during conjugation)	telomere length compared with control cultures [9]
5′-CCCTAACCCTAA-3′ [CTO-12]	dose-related extension of the replicative lifespan	40-50 times	dose related retardation of TRF shortening	approximately 10 doubling	about 52 population doubling	23-26 times	12-15%	55 PDL	continued to express the immortal phenotype	–	–	–	–	–	–	–	–	–	–
Nc1nc2c(ncn2[C@H]2CC[C@@H](CO)O2)c(=O)[nH]1 [ddG]	–	–	–	–	–	–	–	–	–	effective inhibitors of human telomerase	decrease in telomere length	84%	86	85%	73	77%	51	little or no irreversible disruption	no changes in telomere length
